# Patent publication US20120129811A1, “TRICYCLIC INHIBITORS OF PRO-MATRIX METALLOPROTEINASE ACTIVATION” (priority 2010, published 2012)
# Counter-ions that a name gives are not always drawn.
# Tests used:
# [1] = target: T1, proMMP9(67-444;ΔFnII) (SEQ ID NO:5) (Homo sapiens, UniProt P14780, DEL216-390); experiment: ThermoFluor binding assay with proMMP9(67-444;ΔFnII)
# T1 construct: start methionine (N); made in house; host or cells: E. coli BL21(DE3) RIL
# T1 sequence (P14780 with tags, fused parts or gaps DEL216-390): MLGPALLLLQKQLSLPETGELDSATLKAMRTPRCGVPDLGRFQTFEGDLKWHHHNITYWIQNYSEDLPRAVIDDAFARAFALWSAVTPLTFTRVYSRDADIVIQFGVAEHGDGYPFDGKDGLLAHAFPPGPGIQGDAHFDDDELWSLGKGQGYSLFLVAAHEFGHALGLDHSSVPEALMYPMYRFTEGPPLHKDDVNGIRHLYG
# Summary of the method: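 Thermal shift of 3.5 μM proMMP9(67-444;ΔFnII), desalted beforehand, with 50 μM 1,8-ANS in 50 mM HEPES pH 7.0, 100 mM NaCl, 2.5 mM MgCl2, 300 μM CaCl2, 0.001% Tween-20. Heated 40–90 °C at 1 °C/min, fluorescence read at 500 nm; binding fitted from Tm shifts using DSC- and ThermoFluor-derived unfolding parameters.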
# [2] = target: T2, proMMP9(20-445;ΔFnII) (SEQ ID NO:6) (Homo sapiens, UniProt P14780, DEL216-390); experiment: ThermoFluor binding assay with proMMP9(20-445;ΔFnII)
# T2 construct: start methionine (N); made in house; host or cells: E. coli BL21(DE3) RIL
# T2 sequence (P14780 with tags, fused parts or gaps DEL216-390): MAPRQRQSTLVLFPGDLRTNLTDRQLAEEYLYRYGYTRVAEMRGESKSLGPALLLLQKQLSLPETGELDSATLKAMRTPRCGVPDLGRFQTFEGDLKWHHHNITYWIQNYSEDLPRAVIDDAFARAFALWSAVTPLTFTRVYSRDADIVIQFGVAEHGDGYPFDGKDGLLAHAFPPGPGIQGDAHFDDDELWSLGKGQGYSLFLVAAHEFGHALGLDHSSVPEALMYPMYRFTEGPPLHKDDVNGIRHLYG
# Summary of the method: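 Protein thermal stability was measured with 2.8 μM proMMP9(20-445;ΔFnII) and 50 μM 1,8-ANS in 50 mM HEPES pH 7.0, 100 mM NaCl, 0.001% Tween-20, 2.5 mM MgCl2, 300 μM CaCl2, across serial compound dilutions. Samples were heated 40–90° C at 1° C/min with fluorescence read at 500 nm. Tm was fitted, and binding was derived from thermodynamic parameters obtained by DSC and ThermoFluor.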
# [3] = target: T3, full-length proMMP9(1-707) activation by catalytic MMP3 (Homo sapiens, UniProt P14780, R574P); experiment: proMMP9/MMP3 P126 Activation Assay; format: biochemical
# T3 construct: made in house; host or cells: proMMP9: HEK293 (secreted); MMP3: E. coli
# T3 sequence (P14780 20-707 R574P): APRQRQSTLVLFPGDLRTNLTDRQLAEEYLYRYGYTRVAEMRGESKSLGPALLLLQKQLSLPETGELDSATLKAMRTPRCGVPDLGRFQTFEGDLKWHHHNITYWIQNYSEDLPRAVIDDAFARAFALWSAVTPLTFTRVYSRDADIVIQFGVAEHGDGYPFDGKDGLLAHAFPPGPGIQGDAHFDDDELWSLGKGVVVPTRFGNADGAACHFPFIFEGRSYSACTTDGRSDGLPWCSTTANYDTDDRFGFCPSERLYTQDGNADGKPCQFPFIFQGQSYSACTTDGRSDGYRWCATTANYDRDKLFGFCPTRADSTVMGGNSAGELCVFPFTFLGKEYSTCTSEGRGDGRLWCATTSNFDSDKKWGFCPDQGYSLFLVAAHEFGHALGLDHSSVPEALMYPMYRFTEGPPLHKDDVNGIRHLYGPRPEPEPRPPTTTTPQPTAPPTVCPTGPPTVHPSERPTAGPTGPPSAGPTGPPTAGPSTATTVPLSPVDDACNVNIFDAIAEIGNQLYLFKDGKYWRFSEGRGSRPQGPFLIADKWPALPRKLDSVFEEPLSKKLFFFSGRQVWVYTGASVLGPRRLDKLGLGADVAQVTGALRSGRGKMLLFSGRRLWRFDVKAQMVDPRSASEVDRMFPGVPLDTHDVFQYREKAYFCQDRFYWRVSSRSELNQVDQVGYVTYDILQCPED
# Procedure: proMMP9/MMP3 P126 Activation Assay
# The reaction volume was 50 μL. […] Reactivity of residual MMP3 towards P-126 substrate was minimal under these conditions.
Compound,Kd [1] [µM],Kd [2] [µM],IC50 [3] [µM]
"CCn1ncc2c3nc(Nc4cc(S(C)(=O)=O)ccc4OC)sc3ccc21 [Example 106, (6-Ethyl-6H-3-thia-1,6,7-triaza-as-indacen-2-yl)-(5-methanesulfonyl-2-methoxy-phenyl)-amine.TFA]",0.53,0.6,0.19
"CCn1cc2c(ccc3sc(Nc4cc(S(C)(=O)=O)ccc4OC)nc32)n1 [Example 107, (7-Ethyl-7H-3-thia-1,6,7-triaza-as-indacen-2-yl)-(5-methanesulfonyl-2-methoxy-phenyl)-amine.TFA]",1.5,6.8,0.58
"COc1ccc(S(C)(=O)=O)cc1Nc1nc2c(ccc3c2cnn3CC(C)C)s1 [Example 108, (6-Isobutyl-6H-3-thia-1,6,7-triaza-as-indacen-2-yl)-(5-methanesulfonyl-2-methoxy-phenyl)-amine.TFA]",1.4,> 95,0.65
"COc1ccc(S(C)(=O)=O)cc1Nc1nc2c(ccc3c2cnn3CCC(C)C)s1 [Example 109, (5-Methanesulfonyl-2-methoxy-phenyl)-[6-(3-methyl-butyl)-6H-3-thia-1,6,7-triaza-as-indacen-2-yl]-amine.TFA]",2.3,> 95,~2
"COc1ccc(S(C)(=O)=O)cc1Nc1nc2c(ccc3[nH]ncc32)s1 [Example 110, (5-Methanesulfonyl-2-methoxy-phenyl)-(6H-3-thia-1,6,7-triaza-as-indacen-2-yl)-amine.TFA]",0.34,> 95,0.26
"CCCn1ncc2c3nc(Nc4cc(S(C)(=O)=O)ccc4OC)sc3ccc21 [Example 111, (5-Methanesulfonyl-2-methoxy-phenyl)-(6-propyl-6H-3-thia-1,6,7-triaza-as-indacen-2-yl)-amine.TFA]",1.7,3.1,0.37
"COc1ccc(C#N)cc1Nc1nc2c(ccc3c2cnn3C)s1 [Example 112, 4-Methoxy-3-(6-methyl-6H-3-thia-1,6,7-triaza-as-indacen-2-ylamino)-benzonitrile.TFA]",7,> 95,0.16
"Cn1ncc2c3nc(Nc4cc(C(N)=O)ccc4OC(F)(F)F)sc3ccc21 [Example 113, 3-(6-Methyl-6H-3-thia-1,6,7-triaza-as-indacen-2-ylamino)-4-trifluoromethoxy-benzamide.TFA]",1.5,0.14,0.25
"NC(=O)c1ccc(OC(F)(F)F)c(Nc2nc3c(ccc4cnccc43)s2)c1 [Example 114, 3-(Thiazolo[4,5-f]isoquinolin-2-ylamino)-4-trifluoromethoxy-benzamide.TFA]",4.6,1.2,~2.2
"CCn1c(C)nc2ccc3sc(Nc4cc(S(N)(=O)=O)ccc4OC(C)C)nc3c21 [Example 118, 3-(8-Ethyl-7-methyl-8H-imidazo[4′,5′:3,4]benzo[2,1-d]thiazol-2-ylamino)-4-isopropoxy-benzenesulfonamide.TFA]",0.86,0.29,0.51
"Cc1nc2ccc3sc(Nc4cc(S(N)(=O)=O)ccc4OC(C)C)nc3c2n1C [Example 119, 3-(7,8-Dimethyl-8H-imidazo[4′,5′:3,4]-benzo[2,1-d]thiazol-2-ylamino)-4-isopropoxy-benzenesulfonamide.TFA]",1.2,0.91,0.5
"CCn1c(C)nc2ccc3sc(Nc4ccccc4OC)nc3c21 [Example 120, (8-Ethyl-7-methyl-8H-imidazo[4′,5′:3,4]benzo[2,1-d]thiazol-2-yl)-(2-methoxy-phenyl)-amine.TFA]",2.6,3.4,0.48
"CCn1c(C)nc2ccc3sc(Nc4cc(F)ccc4OC)nc3c21 [Example 121, (8-Ethyl-7-methyl-8H-imidazo[4′,5′:3,4]benzo[2,1-d]thiazol-2-yl)-(5-fluoro-2-methoxy-phenyl)-amine.TFA]",0.86,4,0.31
"CCn1c(C)nc2ccc3sc(Nc4cc(S(N)(=O)=O)ccc4OC(F)(F)F)nc3c21 [Example 122, 3-(8-Ethyl-7-methyl-8H-imidazo[4′,5′:3,4]benzo[2,1-d]thiazol-2-ylamino)-4-trifluoromethoxy-benzenesulfonamide.TFA]",0.34,1.2,0.65
"COc1ccc(S(N)(=O)=O)cc1Nc1nc2c(ccc3nc(C)n(C)c32)s1 [Example 123, 3-(7,8-Dimethyl-8H-imidazo[4′,5′:3,4]-benzo[2,1-d]thiazol-2-ylamino)-4-methoxy-benzenesulfonamide.TFA]",4.7,5.3,0.81
"COc1ccccc1Nc1nc2c(ccc3nc(C)n(C)c32)s1 [Example 124, (7,8-Dimethyl-8H-imidazo[4′,5′:3,4]benzo[2,1-d]thiazol-2-yl)-(2-methoxy-phenyl)-amine.TFA]",2.8,5.7,0.47
"COc1ccc(F)cc1Nc1nc2c(ccc3nc(C)n(C)c32)s1 [Example 125, (7,8-Dimethyl-8H-imidazo[4′,5′:3,4]benzo[2,1-d]thiazol-2-yl)-(5-fluoro-2-methoxy-phenyl)-amine.TFA]",0.6,3.1,0.26
"Cc1nc2ccc3sc(Nc4cc(S(N)(=O)=O)ccc4OC(F)(F)F)nc3c2n1C [Example 126, 3-(7,8-Dimethyl-8H-imidazo[4′,5′:3,4]-benzo[2,1-d]thiazol-2-ylamino)-4-trifluoromethoxy-benzenesulfonamide.TFA]",2.2,> 95,0.46
"COc1ccc(F)cc1Nc1nc2c(ccc3ncn(C)c32)s1 [Example 127, (5-Fluoro-2-methoxy-phenyl)-(8-methyl-8H-imidazo[4′,5′:3,4]benzo[2,1-d]thiazol 2-yl)-amine.TFA]",0.98,4.3,0.27
"Cn1cnc2ccc3sc(Nc4cc(S(N)(=O)=O)ccc4OC(F)(F)F)nc3c21 [Example 128, 3-(8-Methyl-8H-imidazo[4′,5′:3,4]benzo[2,1-d]thiazol-2-ylamino)-4-trifluoromethoxy-benzenesulfonamide.TFA]",1.5,4.9,0.68
"CCn1c(C)nc2ccc3sc(Nc4cc(S(N)(=O)=O)ccc4OC)nc3c21 [Example 129, 3-(8-Ethyl-7-methyl-8H-imidazo[4′,5′:3,4]benzo[2,1-d]thiazol-2-ylamino)-4-methoxy-benzenesulfonamide.TFA]",0.52,1.2,0.42
"COc1ccc(S(N)(=O)=O)cc1Nc1nc2c(ccc3ncn(C)c32)s1 [Example 130, 4-Methoxy-3-(8-methyl-8H-imidazo[4′,5′:3,4]benzo[2,1-d]thiazol-2-ylamino)-benzenesulfonamide.TFA]",1.2,> 95,0.83
"CC(C)Oc1ccc(S(N)(=O)=O)cc1Nc1nc2c(ccc3ncn(C)c32)s1 [Example 131, 4-Isopropoxy-3-(8-methyl-8H-imidazo[4′,5′:3,4]benzo[2,1-d]thiazol-2-ylamino)-benzenesulfonamide.TFA]",2,> 95,0.59
"COc1ccccc1Nc1nc2c(ccc3ncn(C)c32)s1 [Example 132, (2-Methoxy-phenyl)-(8-methyl-8H-imidazo[4′,5′:3,4]benzo[2,1-d]thiazol-2-yl)-amine.TFA]",26,> 95,1.4
"CCn1c(C)nc2ccc3sc(Nc4cc(S(C)(=O)=O)ccc4OC)nc3c21 [Example 133, (8-Ethyl-7-methyl-8H-imidazo[4′,5′:3,4]benzo[2,1-d]thiazol-2-yl)-(5-methanesulfonyl-2-methoxy-phenyl)-amine.TFA]",0.31,1.3,0.28
"COc1ccc(S(C)(=O)=O)cc1Nc1nc2c(ccc3nc(C)n(C)c32)s1 [Example 134, (7,8-Dimethyl-8H-imidazo[4′,5′:3,4]benzo[2,1-d]thiazol-2-yl)-(5-methanesulfonyl-2-methoxy-phenyl)-amine.TFA]",0.9,1.6,0.26
